In US20260007681A1, “INDOLE DERIVATIVES AS ESTROGEN RECEPTOR DEGRADERS” (REGENTS OF THE UNIVERSITY OF MICHIGAN, priority 2022, published 2026):

Tests used:
ER = ER (Homo sapiens (Human), UniProt P03372); test: In-cell western blot analysis of relative ER percentage (Compounds B1-B278); format: cell-based; details: ER degradation, 16 hours, read-out: ICW DC50
Method in brief: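 Cells seeded at 40,000 or 10,000 cells/well and treated with compound (final 0.5% DMSO) for 16 h, then formaldehyde-fixed, Triton-permeabilized and co-stained for ER and GAPDH with 680/800 secondaries; LI-COR plate read. ER level expressed relative to untreated/DMSO-treated wells set at 100%.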

[1] = Cell growth assay (WST-8) (Compounds B1-B278); format: cell-based; details: 96 h; T47D cell line; WST-8, 4 days; read-out: Cell Growth Inhibition in T47D cell line IC50
Method in brief: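 Cells seeded at 1500/well overnight, treated one day later with compound doses for 4 days, then 10% WST-8 added for 2.5 h at 37° C in CO2. Absorbance at 450 nm, expressed relative to vehicle control over three independent repeats.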

Sequence of ER (P03372 whole entry): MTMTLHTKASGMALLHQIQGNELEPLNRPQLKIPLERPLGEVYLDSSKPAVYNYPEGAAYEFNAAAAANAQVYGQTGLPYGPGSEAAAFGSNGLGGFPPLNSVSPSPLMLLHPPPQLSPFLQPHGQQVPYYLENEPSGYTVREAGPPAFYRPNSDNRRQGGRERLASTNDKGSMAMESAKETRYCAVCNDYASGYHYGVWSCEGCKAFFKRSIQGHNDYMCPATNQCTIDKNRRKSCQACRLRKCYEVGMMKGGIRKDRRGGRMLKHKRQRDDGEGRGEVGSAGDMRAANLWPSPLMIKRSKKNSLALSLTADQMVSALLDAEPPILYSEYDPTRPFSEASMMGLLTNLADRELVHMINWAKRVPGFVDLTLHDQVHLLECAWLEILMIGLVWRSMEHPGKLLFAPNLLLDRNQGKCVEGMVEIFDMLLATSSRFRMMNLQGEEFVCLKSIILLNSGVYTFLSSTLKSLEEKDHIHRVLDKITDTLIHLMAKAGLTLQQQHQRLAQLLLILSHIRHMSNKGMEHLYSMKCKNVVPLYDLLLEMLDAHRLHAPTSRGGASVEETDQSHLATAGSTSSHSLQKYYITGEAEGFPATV

Compound	DC50 (ER) [nM]	IC50 [1] [nM]
C[C@@H]1Cc2c([nH]c3ccccc23)[C@@H](c2cnc(N3CCC4(CCC(CN5CCN6c7ccc8c(c7OC[C@H]6C5)CN(C5CCC(=O)NC5=O)C8=O)CC4)CC3)nc2)N1CC(C)(C)F (stereo partly drawn) [Compound B162, 3-((R)-7-((3-(5-((1R,3R)-2-(2-fluoro-2-methylpropyl)-3-methyl-2,3,4,9-tetrahydro-1H-pyrido[3,4-b]indol-1-yl)pyrimidin-2-yl)-3-azaspiro[5.5]undecan-9-yl)methyl)-1-oxo-1,3,5,5a,6,7,8,9-octahydro-2H-pyrazino[1′,2′:4,5][1,4]oxazino[2,3-e]isoindol-2-yl)piperidine-2,6-dione]	> 100	> 10
C[C@@H]1Cc2c([nH]c3ccccc23)[C@@H](c2cnc(N3CCC4(CCC(N5CCN6c7ccc8c(c7OC[C@H]6C5)CN(C5CCC(=O)NC5=O)C8=O)CC4)CC3)nc2)N1CC(F)F (stereo partly drawn) [Compound B163, 3-((R)-7-(3-(5-((1R,3R)-2-(2,2-difluoroethyl)-3-methyl-2,3,4,9-tetrahydro-1H-pyrido[3,4-b]indol-1-yl)pyrimidin-2-yl)-3-azaspiro[5.5]undecan-9-yl)-1-oxo-1,3,5,5a,6,7,8,9-octahydro-2H-pyrazino[1′,2′:4,5][1,4]oxazino[2,3-e]isoindol-2-yl)piperidine-2,6-dione]	> 100	> 10
C[C@@H]1Cc2c([nH]c3ccccc23)[C@@H](c2cnc(N3CCC4(CCC(N5CCN6c7ccc8c(c7OC[C@H]6C5)CN(C5CCC(=O)NC5=O)C8=O)CC4)CC3)nc2)N1CC(C)(C)F (stereo partly drawn) [Compound B164, 3-((R)-7-(3-(5-((1R,3R)-2-(2-fluoro-2-methylpropyl)-3-methyl-2,3,4,9-tetrahydro-1H-pyrido[3,4-b]indol-1-yl)pyrimidin-2-yl)-3-azaspiro[5.5]undecan-9-yl)-1-oxo-1,3,5,5a,6,7,8,9-octahydro-2H-pyrazino[1′,2′:4,5][1,4]oxazino[2,3-e]isoindol-2-yl)piperidine-2,6-dione]	> 100	1 to 10
C[C@@H]1Cc2c([nH]c3ccccc23)[C@@H](c2cnc(N3CCC4(CC3)CC(N3CCN5c6ccc7c(c6OC[C@H]5C3)CN(C3CCC(=O)NC3=O)C7=O)CO4)nc2)N1CC(C)(C)F (stereo partly drawn) [Compound B165, 3-((5aR)-7-(8-(5-((1R,3R)-2-(2-fluoro-2-methylpropyl)-3-methyl-2,3,4,9-tetrahydro-1H-pyrido[3,4-b]indol-1-yl)pyrimidin-2-yl)-1-oxa-8-azaspiro[4.5]decan-3-yl)-1-oxo-1,3,5,5a,6,7,8,9-octahydro-2H-pyrazino[1′,2′:4,5][1,4]oxazino[2,3-e]isoindol-2-yl)piperidine-2,6-dione]	10 to 100	1 to 10
C[C@@H]1Cc2c([nH]c3ccccc23)[C@@H](c2cnc(N3CCC4(CC3)CC(N3CCN5c6ccc7c(c6OC[C@H]5C3)CN(C3CCC(=O)NC3=O)C7=O)CO4)nc2)N1CC(F)F (stereo partly drawn) [Compound B166, 3-((5aR)-7-(8-(5-((1R,3R)-2-(2,2-difluoroethyl)-3-methyl-2,3,4,9-tetrahydro-1H-pyrido[3,4-b]indol-1-yl)pyrimidin-2-yl)-1-oxa-8-azaspiro[4.5]dccan-3-yl)-1-oxo-1,3,5,5a,6,7,8,9-octahydro-2H-pyrazino[1′,2′:4,5][1,4]oxazino[2,3-e]isoindol-2-yl)piperidine-2,6-dione]	10 to 100	1 to 10
C[C@@H]1Cc2c([nH]c3ccccc23)[C@@H](c2cnc(N3CC4(CCC(CN5Cc6cc7c(cc6C5)C(=O)N(C5CCC(=O)NC5=O)C7=O)CC4)C3)nc2)N1CC(F)(F)CO (stereo partly drawn) [Compound B167, 6-((2-(5-((1R,3R)-2-(2,2-difluoro-3-hydroxypropyl)-3-methyl-2,3,4,9-tetrahydro-1H-pyrido[3,4-b]indol-1-yl)pyrimidin-2-yl)-2-azaspiro[3.5]nonan-7-yl)methyl)-2-(2,6-dioxopiperidin-3-yl)-6,7-dihydropyrrolo[3,4-f]isoindole-1,3(2H,5H)-dione]	> 100	> 10
C[C@@H]1Cc2c([nH]c3ccccc23)[C@@H](c2cnc(N3CCC4(CC3)CC(CN3CCN5c6ccc7c(c6OC[C@H]5C3)CN(C3CCC(=O)NC3=O)C7=O)CO4)nc2)N1CC(C)(C)F (stereo partly drawn) [Compound B168, 3-((5aR)-7-((8-(5-((1R,3R)-2-(2-fluoro-2-methylpropyl)-3-methyl-2,3,4,9-tetrahydro-1H-pyrido[3,4-b]indol-1-yl)pyrimidin-2-yl)-1-oxa-8-azaspiro[4.5]decan-3-yl)methyl)-1-oxo-1,3,5,5a,6,7,8,9-octahydro-2H-pyrazino[1′,2′:4,5][1,4]oxazino[2,3-e]isoindol-2-yl)piperidine-2,6-dione]	< 10	1 to 10
C[C@@H]1Cc2c([nH]c3ccccc23)[C@@H](c2ccc(N3CCC4(CC3)CC(CN3CCN5c6ccc7c(c6OC[C@H]5C3)CN(C3CCC(=O)NC3=O)C7=O)C4)nc2)N1CC(F)F (stereo partly drawn) [Compound B169, 3-((R)-7-((7-(5-((1R,3R)-2-(2,2-difluoroethyl)-3-methyl-2,3,4,9-tetrahydro-1H-pyrido[3,4-b]indol-1-yl)pyridin-2-yl)-7-azaspiro[3.5]nonan-2-yl)methyl)-1-oxo-1,3,5,5a,6,7,8,9-octahydro-2H-pyrazino[1′,2′:4,5][1,4]oxazino[2,3-e]isoindol-2-yl)piperidine-2,6-dione]	> 100	1 to 10
COc1cc(N2CCC3(CCN(C(=O)CN4Cc5cc6c(cc5C4)C(=O)N(C4CCC(=O)NC4=O)C6=O)CC3)CC2)ccc1[C@@H]1c2[nH]c3ccccc3c2C[C@@H](C)N1CC(C)(C)F (stereo partly drawn) [Compound B170, 2-(2,6-dioxopiperidin-3-yl)-6-(2-(9-(4-((1R,3R)-2-(2-fluoro-2-methylpropyl)-3-methyl-2,3,4,9-tetrahydro-1H-pyrido[3,4-b]indol-1-yl)-3-methoxyphenyl)-3,9-diazaspiro[5.5]undecan-3-yl)-2-oxoethyl)-6,7-dihydropyrrolo[3,4-f]isoindole-1,3(2H,5H)-dione]	> 100	1 to 10
C[C@@H]1Cc2c([nH]c3ccccc23)[C@@H](c2cnc(N3CCC4(CC3)CC(CN3CCN5c6cc7c(cc6OC[C@@H]5C3)C(=O)N(C3CCC(=O)NC3=O)C7)CO4)nc2)N1CC(F)(F)CO (stereo partly drawn) [Compound B171, 3-((4aS)-3-((8-(5-((1R,3R)-2-(2,2-difluoro-3-hydroxypropyl)-3-methyl-2,3,4,9-tetrahydro-1H-pyrido[3,4-b]indol-1-yl)pyrimidin-2-yl)-1-oxa-8-azaspiro[4.5]dccan-3-yl)methyl)-8-oxo-1,2,3,4,4a,5,8,10-octahydro-9H-pyrazino[1′,2′:4,5][1,4]oxazino[2,3-f]isoindol-9-yl)piperidine-2,6-dione]	< 10	> 10
C[C@@H]1Cc2c([nH]c3ccccc23)[C@@H](c2cnc(N3CCC4(CC3)CC(CN3CCN5c6ccc7c(c6OC[C@H]5C3)CN(C3CCC(=O)NC3=O)C7=O)CO4)nc2)N1CC(F)(F)CO (stereo partly drawn) [Compound B172, 3-((5aR)-7-((8-(5-((1R,3R)-2-(2,2-difluoro-3-hydroxypropyl)-3-methyl-2,3,4,9-tetrahydro-1H-pyrido[3,4-b]indol-1-yl)pyrimidin-2-yl)-1-oxa-8-azaspiro[4.5]decan-3-yl)methyl)-1-oxo-1,3,5,5a,6,7,8,9-octahydro-2H-pyrazino[1′,2′:4,5][1,4]oxazino[2,3-e]isoindol-2-yl)piperidine-2,6-dione]	> 100	< 1
C[C@@H]1Cc2c([nH]c3ccccc23)[C@@H](c2c(F)cc(N3CCC(CN4CCN5c6c(ccc7c6CN(C6CCC(=O)NC6=O)C7=O)OC[C@@H]5C4)CC3)cc2F)N1CC(F)F (stereo partly drawn) [Compound B173, 3-((S)-9-((1-(4-((1R,3R)-2-(2,2-difluoroethyl)-3-methyl-2,3,4,9-tetrahydro-1H-pyrido[3,4-b]indol-1-yl)-3,5-difluorophenyl)piperidin-4-yl)methyl)-3-oxo-1,3,7,7a,8,9,10,11-octahydro-2H-pyrazino[1′,2′:4,5][1,4]oxazino[3,2-e]isoindol-2-yl)piperidine-2,6-dione]	> 100	< 1
C[C@@H]1Cc2c([nH]c3ccccc23)[C@@H](c2c(F)cc(N3CCC4(CC3)CN(C(=O)CN3CCN5c6ccc7c(c6OC[C@H]5C3)CN(C3CCC(=O)NC3=O)C7=O)C4)cc2F)N1CC(F)F (stereo partly drawn) [Compound B174, 3-((R)-7-(2-(7-(4-((1R,3R)-2-(2,2-difluoroethyl)-3-methyl-2,3,4,9-tetrahydro-1H-pyrido[3,4-b]indol-1-yl)-3,5-difluorophenyl)-2,7-diazaspiro[3.5]nonan-2-yl)-2-oxoethyl)-1-oxo-1,3,5,5a,6,7,8,9-octahydro-2H-pyrazino[1′,2′:4,5][1,4]oxazino[2,3-e]isoindol-2-yl)piperidine-2,6-dione]	< 10	< 1
C[C@@H]1Cc2c([nH]c3ccccc23)[C@@H](c2cnc(N3CCC4(CC3)CN(CC(=O)N3CCN5c6ccc7c(c6OC[C@H]5C3)CN(C3CCC(=O)NC3=O)C7=O)C4)nc2)N1CC(F)(F)F (stereo partly drawn) [Compound B175, 3-((R)-7-(2-(7-(5-((1R,3R)-3-methyl-2-(2,2,2-trifluoroethyl)-2,3,4,9-tetrahydro-1H-pyrido[3,4-b]indol-1-yl)pyrimidin-2-yl)-2,7-diazaspiro[3.5]nonan-2-yl)acetyl)-1-oxo-1,3,5,5a,6,7,8,9-octahydro-2H-pyrazino[1′,2′:4,5][1,4]oxazino[2,3-e]isoindol-2-yl)piperidine-2,6-dione]	< 10	1 to 10
